According to US9227971B2, “Pyrazolo[1,5-a]pyrimidine compounds as mTOR inhibitors” (Merck Sharp & Dohme Corp., priority 2010, dated 2016):
pIC50: −log10 of the molar value.

Tests used:
[1] = test system: phosphorylated AKT Ser473 (pAKT S473), mTORC2 activity, PC3 cells; test: mTOR target engagement assay, immunofluorescent cell-based, pAKT S473 readout (mTORC2 activity); conditions: Homo sapiens, PC-3, PC3 cells, compound treatment ninety minutes at 37° C.
How it was run: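 After blocking, cells were stained overnight at 4 °C with anti-pAKT S473 antibody, then a fluorescent secondary; inhibition was read as reduced fluorescence intensity.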

[2] = test system: phosphorylated 4E-BP1 Thr37/46 (p4E-BP1 Thr37/46), mTORC1 activity, PC3 cells; test: mTOR target engagement assay, immunofluorescent cell-based, p4E-BP1 Thr37/46 readout (mTORC1 activity); conditions: Homo sapiens, PC-3, PC3 cells, compound treatment ninety minutes at 37° C.; read-out: p4E-BP1 Thr37/46 IC50
How it was run: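 Seed PC3 cells overnight; treat with compound dilutions for ninety minutes at 37° C; fix with glyoxal and block; stain with anti-p4E-BP1 Thr37/46 overnight at 4° C, then fluorescent secondary; read fluorescence and fit IC50 against DMSO-only controls.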

Compound | pIC50 [1] | pIC50 [2]
COc1cc(F)cc2cc(-c3cnn4c(N)c(C(C)=O)c([C@@H]5C[C@H]6CC[C@@H](C5)N6C(=O)CO)nc34)cnc12 [Compound 1.1.183, 1-((1R,3r,5S)-3-(6-acetyl-7-amino-3-(6-fluoro-8-methoxyquinolin-3-yl)pyrazolo[1,5-a]pyrimidin-5-yl)-8-azabicyclo[3.2.1]octan-8-yl)-2-hydroxyethanone] | 7.00 to 9.00 | 6.00 to 7.00
CC(=O)c1c([C@@H]2C[C@H]3CC[C@@H](C2)N3C(=O)c2nnc[nH]2)nc2c(-c3cncc(CO)c3)cnn2c1N [Compound 1.1.184, 1-(5-((1R,3s,5S)-8-(4H-1,2,4-triazole-3-carbonyl)-8-azabicyclo[3.2.1]octan-3-yl)-7-amino-3-(5-(hydroxymethyl)pyridin-3-yl)pyrazolo[1,5-a]pyrimidin-6-yl)ethanone] | 6.00 to 7.00 | 6.00 to 7.00
CC(=O)c1c([C@@H]2C[C@H]3CC[C@@H](C2)N3C(=O)CO)nc2c(-c3ccc(-c4n[nH]c(C)c4F)nc3)cnn2c1N [Compound 1.11..107, 1-((1R,3s,5S)-3-(6-acetyl-7-amino-3-(6-(4-fluoro-5-methyl-1H-pyrazol-3-yl)pyridin-3-yl)pyrazolo[1,5-a]pyrimidin-5-yl)-8-azabicyclo[3.2.1]octan-8-yl)-2-hydroxyethanone] | 6.00 to 7.00 | 6.00 to 7.00
CC(=O)c1c([C@@H]2C[C@H]3CC[C@@H](C2)N3C(N)=O)nc2c(-c3ccc(-c4ccc(F)cc4)nc3)cnn2c1N [Compound 1.11..170, (1R,3s,5S)-3-(6-acetyl-7-amino-3-(6-(4-fluorophenyl)pyridin-3-yl)pyrazolo[1,5-a]pyrimidin-5-yl)-8-azabicyclo[3.2.1]octane-8-carboxamide] | 7.00 to 9.00 | 7.00 to 9.00
Nc1c(Br)c([C@@H]2C[C@H]3CC[C@@H](C2)N3C(=O)c2nc[nH]n2)nc2c(-c3ccc(-c4ccccc4)nc3)cnn12 [Compound 2.1, ((1R,3s,5S)-3-(7-amino-6-bromo-3-(6-phenylpyridin-3-yl)pyrazolo[1,5-a]pyrimidin-5-yl)-8-azabicyclo[3.2.1]octan-8-yl)(1H-1,2,4-triazol-3-yl)methanone] | 6.00 to 7.00 | 7.00 to 9.00
COc1ccc(-c2ccc(-c3cnn4c(N)c(Br)c([C@@H]5C[C@H]6CC[C@@H](C5)N6C(=O)CO)nc34)cn2)cc1CO [Compound 2.2, 1-((1R,3s,5S)-3-(7-amino-6-bromo-3-(6-(3-(hydroxymethyl)-4-methoxyphenyl)pyridin-3-yl)pyrazolo[1,5-a]pyrimidin-5-yl)-8-azabicyclo[3.2.1]octan-8-yl)-2-hydroxyethanone] | 7.00 to 9.00 | 6.00 to 7.00
COc1ccc(-c2ccc(-c3cnn4c(N)c(Br)c([C@@H]5C[C@H]6CC[C@@H](C5)N6C(=O)[C@@H](C)O)nc34)cn2)cc1CO [Compound 2.3, (R)-1-((1R,3S,5S)-3-(7-amino-6-bromo-3-(6-(3-(hydroxymethyl)-4-methoxyphenyl)pyridin-3-yl)pyrazolo[1,5-a]pyrimidin-5-yl)-8-azabicyclo[3.2.1]octan-8-yl)-2-hydroxypropan-1-one] | 7.00 to 9.00 | 7.00 to 9.00
COc1ccc(-c2ccc(-c3cnn4c(N)c(Br)c([C@@H]5C[C@H]6CC[C@@H](C5)N6C(=O)c5nnc[nH]5)nc34)cn2)cc1F [Compound 2.4, ((1R,3s,5S)-3-(7-amino-6-bromo-3-(6-(3-fluoro-4-methoxyphenyl)pyridin-3-yl)pyrazolo[1,5-a]pyrimidin-5-yl)-8-azabicyclo[3.2.1]octan-8-yl)(4H-1,2,4-triazol-3-yl)methanone] | 6.00 to 7.00 | 6.00 to 7.00
COc1ccc(-c2ccc(-c3cnn4c(N)cc([C@@H]5C[C@H]6CC[C@@H](C5)N6C(=O)c5nnc[nH]5)nc34)cn2)cc1F [Compound 2.5, ((1R,3s,5S)-3-(7-amino-3-(6-(3-fluoro-4-methoxyphenyl)pyridin-3-yl)pyrazolo[1,5-a]pyrimidin-5-yl)-8-azabicyclo[3.2.1]octan-8-yl)(4H-1,2,4-triazol-3-yl)methanone] | 6.00 to 7.00 | 5.00 to 6.00
